Literature values as cited in US20080317725A1, “COMPOSITIONS AND METHODS OF TREATING CHRONIC KIDNEY DISEASE” (priority 2007, published 2008).

What was measured:
[1] = administered in large doses
[2] = tested on: humans
[3] = tested on: subjects undergoing dialysis; conditions: vitamin A intake of about 15,000 IU

**Q.** With `CC(=O)N[C@@H](CS)C(=O)O` [NAC, N-acetyl cysteine] as the compound, how does the side effect [1] read?
**A.** The side effect was “cause nausea”.

**Q.** For `C=C1CC[C@H](O)C/C1=C/C=C1\CCC[C@]2(C)[C@@H]([C@H](C)/C=C/[C@H](C)C(C)C)CC[C@@H]12` [vitamin D2, ergocalciferol], which “vitamin D activity in humans relative to vitamin D3” value [2] is on record?
**A.** Its value is “about 1.7 times less than D3”.

**Q.** For vitamin A, which “toxicity of vitamin A intake” value [3] is on record?
**A.** Its value is “produce vitamin A toxicity and correlate with hypercalcaemia”.
